According to patent US20250387382A1, “METHODS OF TREATING ESSENTIAL TREMOR” (Praxis Precision Medicines, Inc., priority 2023, published 2025):

Legend:
[1] = system: participants with moderate to severe ET; test: Phase 2 trial, double-blind part: safety/tolerability; format: in vivo, human
Experimental: This trial is a Phase 2 trial to evaluate the efficacy and safety/tolerability of titration of Compound 1 to 60 mg or 100 mg compared to placebo in participants with moderate to severe ET. Severity of ET in this study was defined by eligibility criteria on TETRAS-ADL, CGI-S, and TETRAS-PS items 6 and 7. This dose range finding trial is comprised of three parts. The first part was randomized, double-blinded (DB), and placebo-controlled, the second part was an optional extension that consisted of an Extension DB Lead-in Period followed by an Extension Open-label (OL) Period. Further, there was also a third part available for completers of the Day 99 visit, which third part was comprised of a blinded cross-over period (referred to as cross-over period) after re-randomization for 6 weeks, after which all completers would receive formula (I) in an open-label fashion. In part one of the trial, eligible participants were randomized to 1 of 2 dose levels of Compound 1 (60 mg or 100 mg) or to placebo. The primary objective of this trial was to evaluate the efficacy of Compound 1 compared to placebo after 56 days (end of randomized, DB, placebo-controlled part) of dosing in participants with ET with moderate to severe tremor utilizing modified ADL as the primary efficacy endpoint. Secondary and exploratory objectives include further efficacy evaluations, an evaluation of the safety and tolerability, and determination of plasma concentrations of formula (I) and its metabolites. The design of the Phase 2 trial is illustrated in FIG. 1.
Throughout the Intervention Period (Day 1 to Day 56), participants who chose to stop dosing or were required to stop dosing entered the Safety Follow-up Period. All participants were asked to return to the clinic for the Safety Follow-up Visit 14 days after their last dose of study drug except for those that chose to enroll in the optional Extension part of the trial (see below).
On Days 7, 21, 35, and 54 participants received a telephone call from site staff to ask about AEs and changes in concomitant medications.

patients with ET = test: Open-label extension of the Phase 2 trial (blinded six-week lead-in, week 14 assessment); format: in vivo, human
Experimental: After the DB part of the trial was complete, participants were able to choose to enter the Extension part of the trial. Participants who chose to enter the Extension began receiving OL study drug for up to 12 months, or start of the cross-over period, after a 43-day Extension DB Lead-in Period, whichever was earlier. During this Extension DB Lead-in Period, participants who received placebo or 60 mg in the DB part of the trial titrated up to 100 mg in a DB fashion utilizing the same dose titration regimen as in the DB part of the trial. Participants who received 100 mg in the DB part of the trial continued to receive 100 mg in a blinded fashion until all participants were receiving Compound 1 100 mg QAM as of Day 99. Participants who were unable to tolerate fixed-dose titration to 100 mg during the Extension DB Lead-in Period were discontinued from the trial and asked to attend the Safety Follow-up/EOS-E Visit. After the Extension DB Lead-in Period, participants flexibly dosed with Compound 1 (20-100 mg) QAM at the discretion of the Investigator during the Extension OL Period until the start of the cross-over period. Participants who consented to participate in the separate LTSS were able to end participation in the current study after completing the End of Treatment Visit and join the LTSS at any point during the Extension OL Period.
All participants who continued into the Extension part of the trial participated in a 43 day Extension DB Lead-in Period so all participants could be titrated to the 100-mg dose in a blinded fashion (Table 2) before receiving open-label, flexible doses of Compound 1 (20-100 mg) for up to 12 months (Days 100-459) during the Extension OL Period.
Following completion of the initial 8 weeks double-blind treatment phase of the Phase 2 trial described in Example 1, eligible patients had the option to continue their access to Compound 1 in an open-label extension phase (OLE). Participants who continued to the open label extension (OLE) phase remained blinded for a six-week lead-in phase.
In the Extension part of the trial, measures of efficacy include analysis of change from baseline to Days 70, 84, 99, 129, 159, 189, 279, 369, and 459 in modified ADL, CGI-S, TETRAS-ADL total score, TETRAS-PS total score, TETRAS UL score, TETRAS CUL score, and CGI-I and PGI-C scores at Days 70, 84, 99, 129, 159, 189, 279, 369, and 459.
A total of 65 patients who completed the double-blinded portion of the Phase 2 trial described in Example 1 were eligible to participate in the OLE and completed the week 14 assessment. FIG. 21 is a bar graph showing change in mADL11 scores from baseline, by study week from week 8 to week 14. Patients who were eligible and continued on Compound 1 (n=39) experienced an additional mean improvement in mADL11 of 1.7 points from 3.09 at Weck 8 (95% CI: 0.98, 5.2) to 4.81 (95% CI: 2.38, 7.23) after 14 weeks of treatment. Patients who switched from placebo to Compound 1 treatment during the OLE 6-week lead-in (n=26) experienced mean improvement in mADL11 of 3.15 points from 1.21 at Week 8 (95% CI: −1.04, 3.46) to 4.36 (95% CI: 1.68, 7.05.

[2] = patients who continued on Compound 1, n=39
[3] = patients who switched from placebo to Compound 1, n=26

CC(C)(C)NC(=O)CN1CCC(CNC(=O)c2cc(F)cc(Cl)c2)CC1 [Compound 1, N-((1-(2-(tert-butylamino)-2-oxoethyl)piperidin-4-yl)methyl)-3-chloro-5-fluorobenzamide]
Safety profile, 60 mg vs 100 mg groups ([1]; in vivo): no significant difference in the safety profile
Severity of the majority of TEAEs ([1]; in vivo): mild-moderate
Proportion of subjects who discontinued ([1]; placebo 11%): 17%
Tolerability ([1]; titration to 60 mg or 100 mg, 56 days): well tolerated
Additional mean improvement in mADL11 from Week 8 to week 14 (patients with ET; [2]): 1.7 points
mADL11 mean improvement from baseline after 14 weeks (patients with ET; [2]): 4.81 points
mADL11 mean improvement from baseline at Week 8 (patients with ET; [2]): 3.09 points
Mean improvement in mADL11 from Week 8 during OLE 6-week lead-in (patients with ET; [3]): 3.15 points
mADL11 mean improvement from baseline after OLE 6-week lead-in (patients with ET; [3]): 4.36 points
Overall safety results (patients with ET; through 14 weeks of treatment): no change to the overall safety results
